This is an account of results in patent publication US20250382344A1, “Soluble GLP1/GIP/NPY2 Receptor Triple Agonists” (Boehringer Ingelheim International GmH, priority 2024, published 2025).

In one data set the target is T1, hGIPR (Homo sapiens, UniProt P48546).
T1 construct: expressed in transfected cells; host or cells: CHO CRE-luciferase reporter cells
T1 sequence (P48546 22-466): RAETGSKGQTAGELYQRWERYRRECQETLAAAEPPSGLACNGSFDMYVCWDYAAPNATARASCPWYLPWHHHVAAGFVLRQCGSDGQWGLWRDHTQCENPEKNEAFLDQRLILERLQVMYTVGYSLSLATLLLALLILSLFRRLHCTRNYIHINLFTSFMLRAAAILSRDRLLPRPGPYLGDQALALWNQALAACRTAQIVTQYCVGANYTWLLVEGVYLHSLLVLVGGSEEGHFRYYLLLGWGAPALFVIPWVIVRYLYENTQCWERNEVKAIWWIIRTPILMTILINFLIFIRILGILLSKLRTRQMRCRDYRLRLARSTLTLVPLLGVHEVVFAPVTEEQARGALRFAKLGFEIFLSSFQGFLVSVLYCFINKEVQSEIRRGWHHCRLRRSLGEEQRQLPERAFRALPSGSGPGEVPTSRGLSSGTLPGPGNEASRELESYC
Kind of data set: hGIPR CreLuc assay in 0.5% and 100% plasma (CHO CRE-luciferase reporter cells). It counts as cell-based. The text has this: CHO and HEK-293 recombinant cell lines express a luciferase reporter gene under control of the CAMP responsive element (CRE). As a second recombinant protein the GLP-1 and NPY2 receptors were expressed in the reporter gene HEK cells, and the GIP receptor was expressed in the reporter gene CHO cells, respectively. Stimulation of these recombinant cells with an agonist leads to an increase of intracellular CAMP levels. In the presence of CAMP, the transcription factor CRE binding protein (CREB) binds to the CRE and to the CREB binding protein (CBP), which leads to transcription of the luciferase reporter gene. Peptides upon serial-dilution in 100% DMSO were transferred into 384-well assay plates with 5 μl pre-dispensed assay buffer (1×HBSS, 20 mM HEPES, pH7.4 supplemented with 0.5% human plasma) using acoustic dispensing on a Labcyte ECHO. Cryo-preserved transgenic reporter gene cells were thawed in assay buffer. 20 μl (10.000 cells/well) were added to the plate with the peptides and incubated for 4 hours at 37° C. in a humidified incubator. Following incubation, assay plates are equilibrated to room temperature, followed by addition of 25 μl of Bright-Glo™ Luciferase reagent, incubation at room temperature for 10 minutes and analysis of luminescence (Envision Reader). […] EC50 values were calculated by non-linear regression using sigmoid concentration-response with variable slope.
The same assays were run in the presence of 100% plasma with no additional buffer constituents.

A short description of data set [1]: Solubility in 0.1 M phosphate buffer at pH 7. The following applies: 0.1 M phosphate buffer at pH 7, 10 mg/mL final peptide concentration, shaking 2 hours at room temperature, peptides as TFA-salts, measured sample pH 6.5-7.0. It counts as physicochemical.
The mark [2] stands for this setting: 0.5% human plasma, read-out: hGIPR 0.5% hP.
The mark [3] stands for this setting: 100% human plasma, read-out: hGIPR 100% hP.

Where two headings read alike, the source gives them in different places.

As for `CC[C@H](C)[C@H](NC(=O)[C@H](CC(C)C)NC(=O)[C@H](Cc1c[nH]cn1)NC(=O)[C@H](CCCNC(=N)N)NC(=O)[C@@H](NC(=O)[C@H](Cc1ccccc1)NC(=O)[C@H](C)NC(=O)C(C)(C)NC(=O)[C@H](CCC(N)=O)NC(=O)[C@H](C)NC(=O)[C@H](CCC(N)=O)NC(=O)[C@H](CC(N)=O)NC(=O)[C@H](CCC(=O)O)NC(=O)[C@H](CC(C)C)NC(=O)C(C)(C)NC(=O)[C@@H](NC(=O)[C@H](CO)NC(=O)[C@H](Cc1ccc(O)cc1)NC(=O)[C@H](CC(=O)O)NC(=O)[C@H](CO)NC(=O)[C@@H](NC(=O)[C@H](Cc1ccccc1)NC(=O)[C@@H](NC(=O)CNC(=O)[C@H](CCC(=O)O)NC(=O)C(C)(C)NC(=O)[C@@H](N)Cc1ccc(O)cc1)[C@@H](C)O)[C@@H](C)O)[C@@H](C)CC)C(C)C)C(=O)N[C@@H](CC(N)=O)C(=O)N[C@@H](CCCCNC(=O)[C@@H](N)CCCCNC(=O)CC[C@H](NC(=O)CC[C@H](NC(=O)CC[C@H](NC(=O)CC[C@H](NC(=O)CC[C@H](NC(=O)CC[C@H](NC(=O)CCCCCCCCCCCCCCCCC(=O)O)C(=O)O)C(=O)O)C(=O)O)C(=O)O)C(=O)O)C(=O)O)C(=O)NC(C)(C)C(=O)N[C@H](C(=O)N[C@@H](CCCNC(=N)N)C(=O)N[C@@H](CCC(N)=O)C(=O)N[C@@H](CCCNC(=N)N)C(=O)N[C@@H](Cc1ccc(O)cc1)C(N)=O)[C@@H](C)O` [Compound 6, Y-Aib-E-G-T-F-T-S-D-Y-S-I-Aib-L-E-N-Q-A-Q-Aib-A-F-V-R-H-L-I-N-K(1,3)-Aib-T-R-Q-R-Y-NH2.C18DA-gGlu-gGlu-gGlu-gGlu-gGlu-gGlu-eLys(1,2)], the EC50 at hGIPR (setting [2]) came out at 0.7 nM. Besides, the solubility at 2 h in data set [1] worked out at 8.9 mg/mL.
Take `CC[C@H](C)[C@H](NC(=O)[C@H](CC(C)C)NC(=O)[C@H](Cc1c[nH]cn1)NC(=O)[C@H](CCCNC(=N)N)NC(=O)[C@@H](NC(=O)[C@H](Cc1ccccc1)NC(=O)[C@H](C)NC(=O)C(C)(C)NC(=O)[C@H](CCC(N)=O)NC(=O)[C@H](C)NC(=O)[C@H](CCC(N)=O)NC(=O)[C@H](CCCCN)NC(=O)[C@H](CCC(=O)O)NC(=O)[C@H](CC(C)C)NC(=O)C(C)(C)NC(=O)[C@@H](NC(=O)[C@H](CO)NC(=O)[C@H](Cc1ccc(O)cc1)NC(=O)[C@H](CC(=O)O)NC(=O)[C@H](CO)NC(=O)[C@@H](NC(=O)[C@H](Cc1ccccc1)NC(=O)[C@@H](NC(=O)CNC(=O)[C@H](CCC(=O)O)NC(=O)C(C)(C)NC(=O)[C@@H](N)Cc1ccc(O)cc1)[C@@H](C)O)[C@@H](C)O)[C@@H](C)CC)C(C)C)C(=O)N[C@@H](CC(N)=O)C(=O)N[C@@H](CCCCNC(=O)[C@@H](N)CCCCNC(=O)[C@@H](N)CCCCNC(=O)CC[C@H](NC(=O)CC[C@H](NC(=O)CC[C@H](NC(=O)CC[C@H](NC(=O)CC[C@H](NC(=O)CC[C@H](NC(=O)CCCCCCCCCCCCCCCCC(=O)O)C(=O)O)C(=O)O)C(=O)O)C(=O)O)C(=O)O)C(=O)O)C(=O)NC(C)(C)C(=O)N[C@H](C(=O)N[C@@H](CCCNC(=N)N)C(=O)N[C@@H](CCC(N)=O)C(=O)N[C@@H](CCCNC(=N)N)C(=O)N[C@@H](Cc1ccc(O)cc1)C(N)=O)[C@@H](C)O` [Compound 11, Y-Aib-E-G-T-F-T-S-D-Y-S-I-Aib-L-E-K-Q-A-Q-Aib-A-F-V-R-H-L-I-N-K(1,3)-Aib-T-R-Q-R-Y-NH2.C18DA-gGlu-gGlu-gGlu-gGlu-gGlu-gGlu-eLys-eLys(1,2)]: the results for the EC50 on hGIPR (setting [2]) and at hGIPR (setting [3]) were 0.3 nM and 8 nM, respectively. In addition, the solubility at 2 h in data set [1] came to 0.8 mg/mL.
With `CC[C@H](C)[C@H](NC(=O)[C@H](CC(C)C)NC(=O)[C@H](Cc1c[nH]cn1)NC(=O)[C@H](CCCNC(=N)N)NC(=O)[C@@H](NC(=O)[C@H](Cc1ccccc1)NC(=O)[C@H](C)NC(=O)C(C)(C)NC(=O)[C@H](CCC(N)=O)NC(=O)[C@H](C)NC(=O)[C@H](CCC(N)=O)NC(=O)[C@H](CCCCN)NC(=O)[C@H](CCC(=O)O)NC(=O)[C@H](CC(C)C)NC(=O)C(C)(C)NC(=O)[C@@H](NC(=O)[C@H](CO)NC(=O)[C@H](Cc1ccc(O)cc1)NC(=O)[C@H](CC(=O)O)NC(=O)[C@H](CO)NC(=O)[C@@H](NC(=O)[C@H](Cc1ccccc1)NC(=O)[C@@H](NC(=O)CNC(=O)[C@H](CCC(=O)O)NC(=O)C(C)(C)NC(=O)[C@@H](N)Cc1ccc(O)cc1)[C@@H](C)O)[C@@H](C)O)[C@@H](C)CC)C(C)C)C(=O)N[C@@H](CC(N)=O)C(=O)N[C@@H](CCCCNC(=O)[C@@H](N)CCCCNC(=O)CC[C@H](NC(=O)CC[C@H](NC(=O)CC[C@H](NC(=O)CC[C@H](NC(=O)CC[C@H](NC(=O)CC[C@H](NC(=O)CCCCCCCCCCCCCCCCC(=O)O)C(=O)O)C(=O)O)C(=O)O)C(=O)O)C(=O)O)C(=O)O)C(=O)NC(C)(C)C(=O)N[C@H](C(=O)N[C@@H](CCCNC(=N)N)C(=O)N(C)[C@@H](CCC(N)=O)C(=O)N[C@@H](CCCNC(=N)N)C(=O)N[C@@H](Cc1ccc(O)cc1)C(N)=O)[C@@H](C)O` [Compound 17, Y-Aib-E-G-T-F-T-S-D-Y-S-I-Aib-L-E-K-Q-A-Q-Aib-A-F-V-R-H-L-I-N-K(1,3)-Aib-T-R-NMeQ-R-Y-NH2.C18DA-gGlu-gGlu-gGlu-gGlu-gGlu-gGlu-eLys(1,2)], the EC50 at hGIPR (setting [2]) came out at 0.2 nM; on hGIPR (setting [3]), 2 nM. Also, the solubility at 2 h in data set [1] was found to be 4 mg/mL.
In the case of `CC[C@H](C)[C@H](NC(=O)[C@H](CC(C)C)NC(=O)[C@H](Cc1c[nH]cn1)NC(=O)[C@H](CCCNC(=N)N)NC(=O)[C@@H](NC(=O)[C@H](Cc1ccccc1)NC(=O)[C@H](C)NC(=O)C(C)(C)NC(=O)[C@H](CCC(N)=O)NC(=O)[C@H](C)NC(=O)[C@H](CCC(N)=O)NC(=O)[C@H](CCCCN)NC(=O)[C@H](CCC(=O)O)NC(=O)[C@H](CC(C)C)NC(=O)C(C)(C)NC(=O)[C@@H](NC(=O)[C@H](CO)NC(=O)[C@H](Cc1ccc(O)cc1)NC(=O)[C@H](CC(=O)O)NC(=O)[C@H](CO)NC(=O)[C@@H](NC(=O)[C@H](Cc1ccccc1)NC(=O)[C@@H](NC(=O)CNC(=O)[C@H](CCC(=O)O)NC(=O)C(C)(C)NC(=O)[C@@H](N)Cc1ccc(O)cc1)[C@@H](C)O)[C@@H](C)O)[C@@H](C)CC)C(C)C)C(=O)N[C@@H](CC(N)=O)C(=O)N[C@@H](CCCCNC(=O)[C@@H](N)CCCCNC(=O)CC[C@H](NC(=O)CC[C@H](NC(=O)CC[C@H](NC(=O)CC[C@H](NC(=O)CC[C@H](NC(=O)CC[C@H](NC(=O)CCCCCCCCCCCCCCCCCCC(=O)O)C(=O)O)C(=O)O)C(=O)O)C(=O)O)C(=O)O)C(=O)O)C(=O)NC(C)(C)C(=O)N[C@H](C(=O)N[C@@H](CCCNC(=N)N)C(=O)N(C)[C@@H](CCC(N)=O)C(=O)N[C@@H](CCCNC(=N)N)C(=O)N[C@@H](Cc1ccc(O)cc1)C(N)=O)[C@@H](C)O` [Compound 26, Y-Aib-E-G-T-F-T-S-D-Y-S-I-Aib-L-E-K-Q-A-Q-Aib-A-F-V-R-H-L-I-N-K(1,3)-Aib-T-R-NMeQ-R-Y-NH2.C20DA-gGlu-gGlu-gGlu-gGlu-gGlu-gGlu-eLys(1,2)], the EC50 at hGIPR (setting [2]) stood at 0.3 nM; on hGIPR (setting [3]), 5.6 nM. For the same compound, the solubility in data set [1] (read-out: Solubility) is 9.4 mg/mL.
As to `CC[C@H](C)[C@H](NC(=O)[C@H](CC(C)C)NC(=O)[C@H](Cc1c[nH]cn1)NC(=O)[C@H](CCCNC(=N)N)NC(=O)[C@@H](NC(=O)[C@H](Cc1ccccc1)NC(=O)[C@H](C)NC(=O)C(C)(C)NC(=O)[C@H](CCC(N)=O)NC(=O)[C@H](C)NC(=O)[C@H](CCC(N)=O)NC(=O)[C@H](CCCCN)NC(=O)[C@H](CCC(=O)O)NC(=O)[C@H](CC(C)C)NC(=O)C(C)(C)NC(=O)[C@@H](NC(=O)[C@H](CO)NC(=O)[C@H](Cc1ccc(O)cc1)NC(=O)[C@H](CC(=O)O)NC(=O)[C@H](CO)NC(=O)[C@@H](NC(=O)[C@H](Cc1ccccc1)NC(=O)[C@@H](NC(=O)CNC(=O)[C@H](CCC(=O)O)NC(=O)C(C)(C)NC(=O)[C@@H](N)Cc1ccc(O)cc1)[C@@H](C)O)[C@@H](C)O)[C@@H](C)CC)C(C)C)C(=O)N[C@@H](CC(N)=O)C(=O)N[C@@H](CCCCNC(=O)[C@@H](N)CCCCNC(=O)CC[C@H](NC(=O)CC[C@H](NC(=O)CC[C@H](NC(=O)CC[C@H](NC(=O)CC[C@H](NC(=O)CC[C@H](NC(=O)CCCCCCCCCCCCCCCCCCC(=O)O)C(=O)O)C(=O)O)C(=O)O)C(=O)O)C(=O)O)C(=O)O)C(=O)N[C@@H](CC(C)C)C(=O)N[C@H](C(=O)N[C@@H](CCCNC(=N)N)C(=O)N[C@@H](CCC(N)=O)C(=O)N[C@@H](CCCNC(=N)N)C(=O)N[C@@H](Cc1ccc(O)cc1)C(N)=O)[C@@H](C)O` [Compound 27, Y-Aib-E-G-T-F-T-S-D-Y-S-I-Aib-L-E-K-Q-A-Q-Aib-A-F-V-R-H-L-I-N-K(1,3)-L-T-R-Q-R-Y-NH2.C20DA-gGlu-gGlu-gGlu-gGlu-gGlu-gGlu-eLys(1,2)], the EC50 on hGIPR (setting [2]) worked out at 0.6 nM. For the same compound, the solubility at 2 h in data set [1] was found to be 10 mg/mL.
